Experimental data: the supplement of paper PMC10883282

Legend:
Assay in all cases: relative viability vs DMSO control (72 h) (fraction); higher = more viable cells
SW872 = test system: SW872
Summary of the method: (§1)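 Serially diluted compound, 2.5 µl from source plates spanning 10 mM to 0.0002 mM, was added 24 h after sarcoma cell lines were seeded in 384-well plates at densities targeting 80–90% confluence. Plates then sat 72 h at 37 °C, 5% CO2, with 0.1% DMSO vehicle and a 5 µM positive control. Relative viability came from ATPLite as percent growth, averaged over up to triplicate wells, and was rescaled with 1 as full and 0 as none.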

A204 = test system: A204
Summary of the method: as §1

SYO-1 = test system: SYO-1
Summary of the method: as §1

SK-ES-1 = test system: SK-ES-1
Summary of the method: as §1

SW982 = test system: SW982
Summary of the method: as §1

HS729 = test system: HS729
Summary of the method: as §1

KHOS-240S = test system: KHOS-240S
Summary of the method: as §1

SW1353 = test system: SW1353
Summary of the method: as §1

G401 = test system: G401
Summary of the method: as §1

SW684 = test system: SW684
Summary of the method: as §1

MES-SA = test system: MES-SA
Summary of the method: as §1

SK-LMS-1 = test system: SK-LMS-1
Summary of the method: as §1

NC(=O)c1cnc2[nH]ccc2c1N[C@@H]1[C@@H]2CC3C[C@H]1C[C@@](O)(C3)C2 [Peficitinib]
Conditions	relative viability
A204, 0.00017 µM	1.06
A204, 0.00051 µM	1.07
A204, 0.00152 µM	1.07
A204, 0.00457 µM	1.06
A204, 0.01372 µM	1.06
A204, 0.04115 µM	1.07
A204, 0.1235 µM	1.02
A204, 0.3704 µM	0.959
A204, 1.111 µM	0.913
A204, 3.333 µM	0.705
A204, 10 µM	0.435
G401, 0.00017 µM	0.9962
G401, 0.00051 µM	1.01
G401, 0.00152 µM	1
G401, 0.00457 µM	1.01
G401, 0.01372 µM	1.05
G401, 0.04115 µM	1.04
G401, 0.1235 µM	1.08
G401, 0.3704 µM	1.14
G401, 1.111 µM	1.19
G401, 3.333 µM	1.14
G401, 10 µM	1.01
HS729, 0.00017 µM	1.04
HS729, 0.00051 µM	1.02
HS729, 0.00152 µM	1.03
HS729, 0.00457 µM	1.04
HS729, 0.01372 µM	0.984
HS729, 0.04115 µM	1
HS729, 0.1235 µM	0.985
HS729, 0.3704 µM	1.02
HS729, 1.111 µM	0.977
HS729, 3.333 µM	0.9905
HS729, 10 µM	0.758
KHOS-240S, 0.00017 µM	1.01
KHOS-240S, 0.00051 µM	1.05
KHOS-240S, 0.00152 µM	1.04
KHOS-240S, 0.00457 µM	1.05
KHOS-240S, 0.01372 µM	1.06
KHOS-240S, 0.04115 µM	1.07
KHOS-240S, 0.1235 µM	1.05
KHOS-240S, 0.3704 µM	1.04
KHOS-240S, 1.111 µM	1.03
KHOS-240S, 3.333 µM	0.837
KHOS-240S, 10 µM	0.498
MES-SA, 0.00017 µM	0.913
MES-SA, 0.00051 µM	0.9465
MES-SA, 0.00152 µM	0.9008
MES-SA, 0.00457 µM	0.918
MES-SA, 0.01372 µM	0.9
MES-SA, 0.04115 µM	0.94
MES-SA, 0.1235 µM	0.945
MES-SA, 0.3704 µM	0.971
MES-SA, 1.111 µM	0.981
MES-SA, 3.333 µM	0.769
MES-SA, 10 µM	0.388
SK-ES-1, 0.00017 µM	0.984
SK-ES-1, 0.00051 µM	1.01
SK-ES-1, 0.00152 µM	1.02
SK-ES-1, 0.00457 µM	0.97
SK-ES-1, 0.01372 µM	0.9884
SK-ES-1, 0.04115 µM	1.02
SK-ES-1, 0.1235 µM	1.02
SK-ES-1, 0.3704 µM	1.04
SK-ES-1, 1.111 µM	0.989
SK-ES-1, 3.333 µM	0.796
SK-ES-1, 10 µM	0.102
SK-LMS-1, 0.00017 µM	1.09
SK-LMS-1, 0.00051 µM	1.09
SK-LMS-1, 0.00152 µM	1.05
SK-LMS-1, 0.00457 µM	1.076
SK-LMS-1, 0.01372 µM	1.1
SK-LMS-1, 0.04115 µM	1.07
SK-LMS-1, 0.1235 µM	1.08
SK-LMS-1, 0.3704 µM	1.08
SK-LMS-1, 1.111 µM	1.13
SK-LMS-1, 3.333 µM	1.11
SK-LMS-1, 10 µM	0.965
SW684, 0.00017 µM	1.08
SW684, 0.00051 µM	1.09
SW684, 0.00152 µM	1.11
SW684, 0.00457 µM	1.12
SW684, 0.01372 µM	1.12
SW684, 0.04115 µM	1.12
SW684, 0.1235 µM	1.12
SW684, 0.3704 µM	1.15
SW684, 1.111 µM	1.17
SW684, 3.333 µM	1.09
SW684, 10 µM	0.827
SW872, 0.00017 µM	1.01
SW872, 0.00051 µM	1.03
SW872, 0.00152 µM	1.037
SW872, 0.00457 µM	0.985
SW872, 0.01372 µM	1.033
SW872, 0.04115 µM	1.03
SW872, 0.1235 µM	1.02
SW872, 0.3704 µM	0.996
SW872, 1.111 µM	0.999
SW872, 3.333 µM	0.932
SW872, 10 µM	0.767
SW982, 0.00017 µM	1.03
SW982, 0.00051 µM	1.03
SW982, 0.00152 µM	1.016
SW982, 0.00457 µM	1.03
SW982, 0.01372 µM	1.02
SW982, 0.04115 µM	1.05
SW982, 0.1235 µM	1.032
SW982, 0.3704 µM	0.986
SW982, 1.111 µM	0.934
SW982, 3.333 µM	0.751
SW982, 10 µM	0.397
SW1353, 0.00017 µM	1.03
SW1353, 0.00051 µM	1.05
SW1353, 0.00152 µM	1.01
SW1353, 0.00457 µM	1.012
SW1353, 0.01372 µM	1.04
SW1353, 0.04115 µM	1.07
SW1353, 0.1235 µM	1.04
SW1353, 0.3704 µM	1.08
SW1353, 1.111 µM	1.09
SW1353, 3.333 µM	1.09
SW1353, 10 µM	0.988
SYO-1, 0.00017 µM	1
SYO-1, 0.00051 µM	0.981
SYO-1, 0.00152 µM	0.985
SYO-1, 0.00457 µM	0.995
SYO-1, 0.01372 µM	0.975
SYO-1, 0.04115 µM	0.97
SYO-1, 0.1235 µM	0.953
SYO-1, 0.3704 µM	0.933
SYO-1, 1.111 µM	0.705
SYO-1, 3.333 µM	0.56
SYO-1, 10 µM	0.405
